In PubChem BioAssay AID248 (DTP/NCI, 2004):
Inconclusive results and toxic doses are left out. Cut-off read from the data, not from the text of the source: active = T/C of 150% or more; inactive = T/C below 125%.

System: L1210 leukemia ip in BDF1 mice, survival T/C
Assay: NCI In Vivo Anticancer Drug Screen. Data for tumor model L1210 Leukemia (intraperitoneal) in B6D2F1 (BDF1) mice
Conditions: endpoint: mean survival time, higher = longer survival
How it was run: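 In this screen, tumor-bearing mice given compound are compared to those given vehicle, and their survival values are reported as a treated-to-control quotient.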

[1] = dose: 12.5 mg/kg/injection, schedule: Q01DX009 (ip), vehicle: saline
[2] = dose: 25.0 mg/kg/injection, schedule: Q01DX009 (ip), vehicle: saline
[3] = dose: 50.0 mg/kg/injection, schedule: Q01DX009 (ip), vehicle: saline
[4] = dose: 50.0 mg/kg/injection, schedule: Q04DX003 (ip), vehicle: saline
[5] = dose: 100.0 mg/kg/injection, schedule: Q04DX003 (ip), vehicle: saline
[6] = dose: 100.0 mg/kg/injection, schedule: Q01DX009 (ip), vehicle: Klucel (hydroxypropylcellulose) (HPC)
[7] = dose: 100.0 mg/kg/injection, schedule: Q04DX003 (ip), vehicle: Klucel (hydroxypropylcellulose) (HPC)
[8] = dose: 200.0 mg/kg/injection, schedule: Q01DX009 (ip), vehicle: Klucel (hydroxypropylcellulose) (HPC)
[9] = dose: 200.0 mg/kg/injection, schedule: Q04DX003 (ip), vehicle: Klucel (hydroxypropylcellulose) (HPC)
[10] = dose: 400.0 mg/kg/injection, schedule: Q01DX009 (ip), vehicle: Klucel (hydroxypropylcellulose) (HPC)
[11] = dose: 400.0 mg/kg/injection, schedule: Q04DX003 (ip), vehicle: Klucel (hydroxypropylcellulose) (HPC)

Measured: T/C

C[N+]1(C)C2CSCC1CC(O)C2 (stereo unspecified)
inactive: [1] 105 % of control | dose: 12.5 mg/kg/injection, schedule: Q04DX003 (ip), vehicle: saline 104 % of control | [2] 117 % of control | dose: 25.0 mg/kg/injection, schedule: Q04DX003 (ip), vehicle: saline 98 % of control | [3] 106 % of control | [4] 102 % of control | [5] 101 % of control

CC(=O)CC(=O)Nc1ccc(-c2ccc(NC(=O)CC(C)=O)c(Cl)c2)cc1Cl
inactive: [6] 95 % of control | [7] 98 % of control | [8] 97 % of control | [9] 98 % of control | [10] 93 % of control | [11] 91 % of control

C=CCN(CC=C)CCNc1cc(C)nc(/N=C(\N)Nc2ccc(Cl)c(Cl)c2)n1
inactive: dose: 75.0 mg/kg/injection, schedule: Q01DX001 (ip), vehicle: other 92 % of control | dose: 150.0 mg/kg/injection, schedule: Q01DX001 (ip), vehicle: other 92 % of control | dose: 300.0 mg/kg/injection, schedule: Q01DX001 (ip), vehicle: other 92 % of control

C=C1C(=O)OC2CC(C)C(C(O)CC(C)O)=CCC12 (stereo unspecified)
inactive: dose: 50.0 mg/kg/injection, schedule: Q01DX001 (ip), vehicle: water 95 % of control | dose: 100.0 mg/kg/injection, schedule: Q01DX001 (ip), vehicle: water 95 % of control

c1ccc([Si](c2ccccc2)(c2ccccc2)[Si](c2ccccc2)(c2ccccc2)c2ccccc2)cc1
inactive: [1] 100 % of control | [2] 93 % of control | [3] 93 % of control | dose: 100.0 mg/kg/injection, schedule: Q04DX002 (ip), vehicle: Klucel (hydroxypropylcellulose) (HPC) 98 % of control | dose: 200.0 mg/kg/injection, schedule: Q04DX002 (ip), vehicle: Klucel (hydroxypropylcellulose) (HPC) 98 % of control | dose: 400.0 mg/kg/injection, schedule: Q04DX002 (ip), vehicle: Klucel (hydroxypropylcellulose) (HPC) 87 % of control

CCOC(=O)c1c(O)csc1C
inactive: [6] 93 % of control | [7] 98 % of control | [8] 90 % of control | [9] 101 % of control | [10] 109 % of control | [11] 97 % of control

c1ccc(-c2nc3cnccc3o2)cc1
inactive: dose: 12.5 mg/kg/injection, schedule: Q01DX009 (ip), vehicle: Klucel (hydroxypropylcellulose) (HPC) 92 % of control | dose: 25.0 mg/kg/injection, schedule: Q01DX009 (ip), vehicle: Klucel (hydroxypropylcellulose) (HPC) 94 % of control | dose: 50.0 mg/kg/injection, schedule: Q01DX009 (ip), vehicle: Klucel (hydroxypropylcellulose) (HPC) 94 % of control | [7] 106 % of control | [9] 99 % of control | [11] 94 % of control

O=C(NCCBr)OCc1ccccc1
inactive: [4] 98 % of control | [5] 98 % of control | dose: 200.0 mg/kg/injection, schedule: Q04DX003 (ip), vehicle: saline 101 % of control

CCCCOC(=O)COc1cc(Cl)c(Cl)cc1Cl
inactive: dose: 100.0 mg/kg/injection, schedule: Q04DX002 (ip), vehicle: saline with Tween-80 93 % of control | dose: 200.0 mg/kg/injection, schedule: Q04DX002 (ip), vehicle: saline with Tween-80 104 % of control
